Results: patent publication US20240424115A1, “LONG-ACTING INTERLEUKIN-15 RECEPTOR AGONISTS AND RELATED IMMUNOTHERAPEUTIC COMPOSITIONS AND METHODS” (Nektar Therapeutics, priority 2017, published 2024)

What was measured:
IL-15Rα = IL-15Rα (Homo sapiens, UniProt Q13261); experiment: Receptor affinity for IL-15Rα by surface plasmon resonance (BIAcore); assay type: binding; conditions: Table 2B; read-out: IL-15Rα KD
Procedure: The affinities of IL-15 and exemplary long acting rIL-15 receptor agonists were measured using Surface Plasmon Resonance (“SPR”) using a BIAcore™ SPR system. Briefly, the surface of a Biacore CM5 sensor chip was activated using a 1:1 mixture of NHS: EDC to generate active NHS esters. Goat anti-human Fc antibody was covalently attached to the surface by injecting it for five minutes in 10 mM sodium acetate (pH 4). There were approximately 8000 RU of antibodies bound to the surface. Any remaining NHS ester was then quenched with ethanolamine.
At the initiation of each injection cycle, IL-15-Rα-Fc was captured on a sensor chip channel by a five-minute injection step in PBSP. Typically, 150-200 RU of receptors were bound on the surface.
(§1) Long acting rIL-15 receptor agonist test articles were diluted to 10 µM in PBS (containing 0.05% Tween 20 and 0.1 mg/ml BSA). A series of 3-fold dilutions were made and injected onto a sensor chip which was coated with IL-15Rα. The affinities were measured by determining the ka and kd rates separately, and the ratio between kd and ka was used to calculate the Kd values.
The affinities of exemplary long-acting IL-15 receptor agonists (test articles) for the IL-15 α receptor were measured and compared to IL-15. Affinity was measured by BIAcore using IL-15Rα:Fc captured by immobilized anti-Fc.
as §1, with “The” for “Long acting rIL-15 receptor agonist”, “μM” for “µM”, “between ka and” for “between”, “kd” for “kd and ka”, “[…]” for “Kd”

CTLL-2 cells = experiment: Potency assay based on STAT5 phosphorylation in CTLL-2 cells; assay type: cell-based, murine; conditions: for EC50 (ng/mL) CTLL-2 pSTAT5: Table 2B
Procedure: In the phospho-STAT5 assay following receptor binding, downstream cell signaling can then activate Signal Transducer and Activator of Transcription 5 (STAT5) through phosphorylation to promote gene expression to induce cell proliferation. The activation of phosho-STAT5 is measured in CTLL-2 cells, a murine T lymphocyte cell line, using the phospho-STAT5/total STAT5 multiplexed assay (Meso Scale Discovery, MD) in response to sample and reference treatment for ˜10 minutes.
One day prior to the assay, CTLL-2 cells were split into fresh growth medium [RPMI 1640 supplemented with 10% FBS, 10% T-cell culture supplement (catalog #354115, Corning, Inc., Tewksbury, MA), 2 mM L-glutamate, and 1 mM sodium pyruvate]. On the day of assay, cells were pre-incubated in assay medium (RPMI 1640 supplemented with 1% FBS, 2 mM L-glutamate, and 1 mM sodium pyruvate) for at least four hours, and then plated in assay medium in a 96-well plate at 50,000 cells/well. Dilutions of the test article were prepared in an appropriate buffer immediately prior to assay. Stimulation of CTLL-2 cells was initiated by the transfer of 25X test article solutions to triplicate wells containing CTLL-2 cells. Plates were incubated at 37° C., 5% CO2 for 10 minutes, and the reaction was stopped by cell lysis. Detection of phospho-STAT5 and total STAT5 protein levels in cell lysates was performed using the MSD Phospho (Tyr694)/Total STATa,b Whole Cell Lysate Kit (Meso Scale Discovery, MD).

IL-15Rα:Fc [1] = experiment: SPR (BIAcore), IL-15Rα:Fc captured by immobilised goat anti-human Fc
Chain of IL-15Rα:Fc (Q13261 31-205): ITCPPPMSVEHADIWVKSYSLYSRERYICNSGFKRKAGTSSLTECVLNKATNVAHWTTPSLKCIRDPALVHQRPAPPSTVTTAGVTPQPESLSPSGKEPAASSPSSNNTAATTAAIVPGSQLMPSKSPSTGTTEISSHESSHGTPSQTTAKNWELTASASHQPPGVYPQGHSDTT
IL-15Rα:Fc [2] = experiment: SPR (BIAcore), IL-15Rα:Fc captured by immobilised goat anti-human Fc, KD from kd/ka
IL-15Rα:Fc [3] = experiment: SPR (BIAcore), IL-15Rα:Fc captured by immobilised goat anti-human Fc, test article injected in 3-fold dilutions from 10 µM
[4] = PK (MRT) of long-acting IL-15 receptor agonists (Table 2B); assay type: in vivo; conditions: species not stated
human PBMCs = experiment: HuPBMC-pStat5 assay (flow cytometry, lymphocyte subpopulations); assay type: cell-based; conditions: for EC50 (ng/ml) pSTAT5 CD56bright NK: Table 3, CD56bright NK cells
Procedure: The potency of IL-15 or long acting IL-15 R agonists on various human lymphocyte subpopulations was determined by phospho-STAT5 (Y694) dose response assay. Frozen human PBMCs from multiple donors were supplied by AllCells. 1×10^6 cells/100ul were cultured in complete RPMI media for 2 hours and then incubated with the indicated concentrations (10,000ng/ml-0.001ng/ml serial dilutions) of IL-15 or conjugates for 20minutes at 37c. The cells were then fixed (using BD Cytofix) and permeabilized (using 100% pre-chilled methanol) and stained with antibodies for CD3, CD4, CD8, CD4-Tregs (CD4+CD25+Foxp3+), CD56 and phosphorylated STAT5 (Y694) before analysis by flow cytometry. Concentration-response relationships were used to calculate the EC50 values.
Assessment of in-vitro activity of exemplary long-acting IL-15 receptor agonists (e.g., Conjugates 1, 3 and 5) was carried out by investigating signaling in NK cell subsets of human PBMCs as shown in FIGS. 10A (CD56bright cells) and 10B (CD56dim cells). STAT5 phosphorylation was evaluated as previously described for assessing IL-15 signaling activity of the long acting IL-15 receptor agonists.
A second study was conducted to investigate/compare the pStat5 response of human PBMCs obtained from two donors (CD3, CD4, CD8, CD56 (bright and dim) and CD4-Tregs (CD25+Foxp3+)) to IL-15, Conjugate 1 and Conjugate 5. An […] dose response was examined using a 10-fold dilution with a dose range of 0.001-10000 ng/ml and a 20 min stimulation. Each of the test articles was diluted in IL-15 buffer+0.1% BSA.
Assessment of in vitro activity of Conjugate 1 was carried out by investigating NK and CD8 JAK/STAT signaling after treatment of human PBMCs with IL-15 or Conjugate 1 at a dose range of 0.001-10000 ng/ml. STAT5 phosphorylation was assessed as previously described.

Chain of IL-15Rα (Q13261 31-205 limits assumed): as the sequence (Q13261 31-205) above

mono-PEG2-RU-ButryALD-20K]-IL-15 [Conjugate 4]
Kd (IL-15Rα): 0.215 nM | EC50 (ng/mL) CTLL-2 pSTAT5 (CTLL-2 cells): 6.21 ng/mL

mono-PEG2-RU-ButryALD-20K]-IL-15 (Conjugate 4) (from UniProt P40933 49-162) (ligand)
Kd (IL-15Rα:Fc [1]): 0.215 nM

recombinant human IL-15: recombinant human IL-15 obtained from PeproTech, served as the control in the CTLL-2 assay [reference compound]
average EC50, STAT5 phosphorylation in CTLL-2 cells (CTLL-2 cells; 10-minute treatment, control): 0.00027 µg/mL

Recombinant human IL-15 (rIL-15), SEQ ID NO: 1 (from UniProt P40933 49-162) (ligand)
Kd (IL-15Rα:Fc [1]): 0.258 nM | Kd (IL-15Rα:Fc [2]): 0.258 nM | koff (IL-15Rα:Fc [3]): 0.000149 s⁻¹ | kon (IL-15Rα:Fc [3]): 578000 M⁻¹ s⁻¹

mono-mPEG-ButryALD-40k-IL-15 [Conjugate 5]
PK (MRT) [4]: 25 h | Kd (IL-15Rα): 0.144 nM | EC50 (ng/ml)-% pSTAT5 CD3 donor1 (human PBMCs; CD3 cells, donor1, 20 min stimulation): 1.3 ng/ml | EC50 (ng/ml)-% pSTAT5 CD3 donor2 (human PBMCs; CD3 cells, donor2, 20 min stimulation): 1.7 ng/ml | EC50 (ng/ml)-% pSTAT5 Treg donor1 (human PBMCs; CD4-Treg cells, donor1): 0.44 ng/ml | EC50 (ng/ml)-% pSTAT5 Treg donor2 (human PBMCs; CD4-Treg cells, donor2): 0.45 ng/ml | EC50 (ng/ml)-% pSTAT5 CD4 donor1 (human PBMCs; CD4 cells, donor1): 1.3 ng/ml | EC50 (ng/ml)-% pSTAT5 CD4 donor2 (human PBMCs; CD4 cells, donor2): 1.14 ng/ml | EC50 (ng/ml)-% pSTAT5 CD8 donor1 (human PBMCs; CD8 cells, donor1): 1.4 ng/ml | EC50 (ng/ml)-% pSTAT5 CD8 donor2 (human PBMCs; CD8 cells, donor2): 2.5 ng/ml | EC50 (ng/ml)-% pSTAT5 CD56bright donor1 (human PBMCs; CD56bright cells, donor1): 5.1 ng/ml | EC50 (ng/ml)-% pSTAT5 CD56bright donor2 (human PBMCs; CD56bright cells, donor2): 4.5 ng/ml | EC50 (ng/ml)-% pSTAT5 CD56dim donor1 (human PBMCs; CD56dim cells, donor1): 16.48 ng/ml | EC50 (ng/ml)-% pSTAT5 CD56dim donor2 (human PBMCs; CD56dim cells, donor2): 27.12 ng/ml | EC50 (ng/ml) pSTAT5 CD56bright NK (human PBMCs): 32.26 ng/ml | EC50 (ng/ml)-% pSTAT5 CD3 (human PBMCs; Table 7 Summary Table, CD3): 1.3 ng/ml | EC50 (ng/ml)-% pSTAT5 CD4 (human PBMCs; Table 7 Summary Table, CD4): 1.3 ng/ml | EC50 (ng/ml)-% pSTAT5 CD8 (human PBMCs; Table 7 Summary Table, CD8): 1.4 ng/ml | EC50 (ng/ml)-% pSTAT5 CD56bright (human PBMCs; Table 7 Summary Table, CD56bright): 5.1 ng/ml | EC50 (ng/ml)-% pSTAT5 CD56dim (human PBMCs; Table 7 Summary Table, CD56dim): 16.48 ng/ml | EC50 (ng/ml)-% pSTAT5 Treg (human PBMCs; Table 7 Summary Table, Treg): 0.44 ng/ml | IL-15 more potent than conjugate in inducing CD3, CD4, CD8 and Treg cells (human PBMCs; Table 7 data): 5-8 fold | IL-15 more potent than conjugate in inducing CD56bright and CD56dim cells (human PBMCs; Table 7 data): 40-60 fold | EC50 (ng/ml)-MFI CD3 donor1 (human PBMCs; pSTAT5 MFI, CD3 cells, donor1): 84.73 ng/mL | EC50 (ng/ml)-MFI CD3 donor2 (human PBMCs; pSTAT5 MFI, CD3 cells, donor2): 154.2 ng/mL | EC50 (ng/ml)-MFI Treg donor1 (human PBMCs; pSTAT5 MFI, CD4-Treg cells, donor1): 3.5 ng/mL | EC50 (ng/ml)-MFI Treg donor2 (human PBMCs; pSTAT5 MFI, CD4-Treg cells, donor2): 5.4 ng/mL | EC50 (ng/ml)-MFI CD4 donor1 (human PBMCs; pSTAT5 MFI, CD4 cells, donor1): 84.21 ng/mL | EC50 (ng/ml)-MFI CD4 donor2 (human PBMCs; pSTAT5 MFI, CD4 cells, donor2): 98.18 ng/mL | EC50 (ng/ml)-MFI CD8 donor1 (human PBMCs; pSTAT5 MFI, CD8 cells, donor1): 53.7 ng/mL | EC50 (ng/ml)-MFI CD8 donor2 (human PBMCs; pSTAT5 MFI, CD8 cells, donor2): 204.6 ng/mL | EC50 (ng/ml)-MFI CD56bright donor1 (human PBMCs; pSTAT5 MFI, CD56bright cells, donor1): 24.86 ng/mL | EC50 (ng/ml)-MFI CD56bright donor2 (human PBMCs; pSTAT5 MFI, CD56bright cells, donor2): 56.9 ng/mL | EC50 (ng/ml)-MFI CD56dim donor1 (human PBMCs; pSTAT5 MFI, CD56dim cells, donor1): 97.51 ng/mL | EC50 (ng/ml)-MFI CD56dim donor2 (human PBMCs; pSTAT5 MFI, CD56dim cells, donor2): 283.4 ng/mL | EC50 (ng/mL) CTLL-2 pSTAT5 (CTLL-2 cells): 1.45 ng/mL

[Mono-PEG2-RU-ButryALD-40K]-IL-15 [Conjugate 3]
PK (MRT) [4]: 30 h | Kd (IL-15Rα): 0.411 nM | EC50 (ng/ml) pSTAT5 CD56bright NK (human PBMCs): 69.76 ng/ml | EC50 (ng/mL) CTLL-2 pSTAT5 (CTLL-2 cells): 16.80 ng/mL

[Mono-PEG2-RU-ButryALD-40K]-IL-15 (Conjugate 3) (from UniProt P40933 49-162) (ligand)
Kd (IL-15Rα:Fc [1]): 0.411 nM

mono-mPEG-ButryALD-40k-IL-15 (Conjugate 5) (from UniProt P40933 49-162) (ligand)
Kd (IL-15Rα:Fc [1]): 0.144 nM
